molecular target: P2X7 (Homo sapiens (Human), UniProt Q99572); assay: P2X7 antagonism in human PBMCs (LPS + Bz-ATP induced IL-1β release, ELISA); assay type: cell-based; settings: compound 1 μM, LPS 30 ng/ml, Bz-ATP 0.5 mM;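 also: PBMCs from donor human blood, with a further 1.5 h incubation of the cells in the assay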
Sequence (Q99572 whole entry): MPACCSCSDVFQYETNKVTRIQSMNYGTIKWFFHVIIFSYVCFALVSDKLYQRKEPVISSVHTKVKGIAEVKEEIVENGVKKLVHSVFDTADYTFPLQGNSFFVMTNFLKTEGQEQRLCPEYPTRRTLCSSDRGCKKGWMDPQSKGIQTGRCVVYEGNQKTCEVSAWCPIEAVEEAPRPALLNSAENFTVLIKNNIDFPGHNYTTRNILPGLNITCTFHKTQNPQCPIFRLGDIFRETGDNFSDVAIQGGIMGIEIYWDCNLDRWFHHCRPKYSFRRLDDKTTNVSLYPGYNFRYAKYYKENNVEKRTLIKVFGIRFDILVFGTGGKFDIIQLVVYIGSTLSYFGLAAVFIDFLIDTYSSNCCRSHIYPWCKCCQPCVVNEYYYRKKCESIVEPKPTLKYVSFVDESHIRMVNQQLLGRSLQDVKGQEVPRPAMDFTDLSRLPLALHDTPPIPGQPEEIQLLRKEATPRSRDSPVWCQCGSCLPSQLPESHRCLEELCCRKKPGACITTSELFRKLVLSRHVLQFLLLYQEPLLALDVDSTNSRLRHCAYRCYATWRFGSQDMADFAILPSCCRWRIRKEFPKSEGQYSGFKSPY

PBMC 1 μM (% control) | SMILES
97.6 % control | O=C(c1cccc2c1OCC2)N1CCc2c(ncn2-c2ccccc2)C1 [Example 51, 5-(2,3-Dihydro-1-benzofuran-7-ylcarbonyl)-1-phenyl-4,5,6,7-tetrahydro-1H-imidazo[4,5-c]pyridine]
76.5 % control | O=C(c1cccc(C(F)(F)F)c1Cl)N1CCc2ncn(-c3cnccn3)c2C1 [Example 10, (2-Chloro-3-(trifluoromethyl)phenyl)(3-(pyrazin-2-yl)-6,7-dihydro-3H-imidazo[4,5-c]pyridin-5(4H)-yl)methanone]
5.2 % control | C[C@H]1c2nnn(-c3cnccn3)c2CCN1C(=O)c1cccc(C(F)(F)F)c1Cl (single isomer, unassigned) [Example 75, (4 S*)-5-{[2-Chloro-3-(trifluoromethyl)phenyl]carbonyl}-4-methyl-1-pyrazin-2-yl-4,5,6,7-tetrahydro-1H-[1,2,3]triazolo[4,5-c]pyridine]
15.7 % control | Cn1nc2c(c1-c1cccnc1)CCN(C(=O)c1cccc(Cl)c1Cl)C2 [Example 111, 6-[(2,3-Dichlorophenyl)carbonyl]-2-methyl-3-pyridin-3-yl-4,5,6,7-tetrahydro-2H-pyrazolo[3,4-c]pyridine]
9.2 % control | O=C(c1cccc(Cl)c1Cl)N1CCc2c(-c3ccccc3)n[nH]c2C1 [Example 100, 6-[(2,3-Dichlorophenyl)carbonyl]-3-phenyl-4,5,6,7-tetrahydro-1H-pyrazolo[3,4-c]pyridine]

same assay, conditions: compound 10 μM, LPS 30 ng/ml, Bz-ATP 0.5 mM

PBMC 10 μM (% control) | SMILES
12.3 % control | C[C@H]1c2nnn(-c3ccn[nH]3)c2CCN1C(=O)c1cccc(C(F)(F)F)c1Cl (single isomer, unassigned) [Example 134, (S*)-(2-Chloro-3-(trifluoromethyl)phenyl)(4-methyl-1-(1H-pyrazol-5-yl)-6,7-dihydro-1H-[1,2,3]triazolo[4,5-c]pyridin-5(4H)-yl)methanone]
−1.1 % control | C[C@H]1c2ncn(-c3ccc(F)cc3)c2CCN1C(=O)c1cccc(C(F)(F)F)c1Cl (single isomer, unassigned) [Example 47]
−0.3 % control | C[C@H]1c2nnn(-c3cnccn3)c2CCN1C(=O)c1cccc(C(F)(F)F)c1Cl (single isomer, unassigned) [Example 75, (4 S*)-5-{[2-Chloro-3-(trifluoromethyl)phenyl]carbonyl}-4-methyl-1-pyrazin-2-yl-4,5,6,7-tetrahydro-1H-[1,2,3]triazolo[4,5-c]pyridine]
4.6 % control | CC1c2nnn(-c3ncccn3)c2CCN1C(=O)c1cccc(C(F)(F)F)c1Cl (stereo not drawn) [Example 80, 5-{[2-Chloro-3-(trifluoromethyl)phenyl]carbonyl}-4-methyl-1-pyrimidin-2-yl-4,5,6,7-tetrahydro-1H-[1,2,3]triazolo[4,5-c]pyridine]
3.2 % control | CC1Cc2c(nnn2-c2ncc(F)cn2)CN1C(=O)c1cccc(C(F)(F)F)c1Cl (stereo not drawn) [Example 200, 5-{[2-Chloro-3-(trifluoromethyl)phenyl]carbonyl}-1-(5-fluoropyrimidin-2-yl)-6-methyl-4,5,6,7-tetrahydro-1H-[1,2,3]triazolo[4,5-c]pyridine]
−3.5 % control | Cc1cccnc1-n1nnc2c1CCN(C(=O)c1cccc(C(F)(F)F)c1Cl)C2C (stereo not drawn) [Example 259, (2-Chloro-3-(trifluoromethyl)phenyl)(4-methyl-1-(3-methylpyridin-2-yl)-6,7-dihydro-1H-[1,2,3]triazolo[4,5-c]pyridin-5(4H)-yl)methanone]
0.2 % control | CC1Cc2c(nnn2-c2ncccc2F)CN1C(=O)c1cccc(C(F)(F)F)c1Cl (stereo not drawn) [Example 122, 5-{[2-Chloro-3-(trifluoromethyl)phenyl]carbonyl}-1-(3-fluoropyridin-2-yl)-6-methyl-4,5,6,7-tetrahydro-1H-[1,2,3]triazolo[4,5-c]pyridine]
95.0 % control | C[C@@H]1c2nnn(-c3ccn(C)n3)c2CCN1C(=O)c1cccc(C(F)(F)F)c1Cl (single isomer, unassigned) [Example 169, (R*)-(2-Chloro-3-(trifluoromethyl)phenyl)(4-methyl-1-(1-methyl-1H-pyrazol-3-yl)-6,7-dihydro-1H-[1,2,3]triazolo[4,5-c]pyridin-5(4H)-yl)methanone]
−0.7 % control | Cc1c(C(=O)N2CCc3c(nnn3-c3ncccn3)[C@H]2C)cccc1C(F)(F)F (single isomer, unassigned) [Example 188, (R*)-(4-methyl-1-(pyrimidin-2-yl)-6,7-dihydro-1H-[1,2,3]triazolo[4,5-c]pyridin-5(4H)-yl)(2-methyl-3-(trifluoromethyl)phenyl)methanone]
−19.7 % control | C[C@@H]1Cc2c(nnn2-c2ccn[nH]2)[C@@H](C)N1C(=O)c1cccc(C(F)(F)F)c1Cl [Example 320, (2-chloro-3-(trifluoromethyl)phenyl)((4R,6R)-4,6-dimethyl-1-(1H-pyrazol-5-yl)-6,7-dihydro-1H-[1,2,3]triazolo[4,5-c]pyridin-5(4H)-yl)methanone]
21.7 % control | C[C@H]1c2nnn(-c3ncccn3)c2CCN1C(=O)c1cccc(C(F)(F)F)c1Cl (single isomer, unassigned) [Example 87, (4S*)-5-{[2-Chloro-3-(trifluoromethyl)phenyl]carbonyl}-4-methyl-1-pyrimidin-2-yl-4,5,6,7-tetrahydro-1H-[1,2,3]triazolo[4,5-c]pyridine]
45.3 % control | CC1Cc2c(nnn2-c2ccccn2)CN1C(=O)c1cccc(C(F)(F)F)c1Cl (stereo not drawn) [Example 116, 5-{[2-Chloro-3-(trifluoromethyl)phenyl]carbonyl}-6-methyl-1-pyridin-2-yl-4,5,6,7-tetrahydro-1H-[1,2,3]triazolo[4,5-c]pyridine]
28.5 % control | C[C@@H]1Cc2c(nnn2-c2cnccn2)CN1C(=O)c1cccc(C(F)(F)F)c1Cl (single isomer, unassigned) [Example 211, (6R*)-5-{[2-Chloro-3-(trifluoromethyl)phenyl]carbonyl}-6-methyl-1-pyrazin-2-yl-4,5,6,7-tetrahydro-1H-[1,2,3]triazolo[4,5-c]pyridine]
−2.6 % control | C[C@H]1Cc2c(nnn2-c2ccc(F)cc2)[C@H](C)N1C(=O)c1cccc(C(F)(F)F)c1Cl [Example 285, (2-chloro-3-(trifluoromethyl)phenyl)((4S,6S)-1-(4-fluorophenyl)-4,6-dimethyl-6,7-dihydro-1H-[1,2,3]triazolo[4,5-c]pyridin-5(4H)-yl)methanone]
2.1 % control | C[C@@H]1c2ncn(-c3ccc(F)cc3)c2CCN1C(=O)c1cccc(C(F)(F)F)c1Cl (single isomer, unassigned) [Example 46, (4R*)-5-{[2-Chloro-3-(trifluoromethyl)phenyl]carbonyl}-1-(4-fluorophenyl)-4-methyl-4,5,6,7-tetrahydro-1H-imidazo[4,5-c]pyridine]
28.9 % control | CC1c2nnn(-c3ncc(F)cn3)c2CCN1C(=O)c1cccc(C(F)(F)F)c1Cl (stereo not drawn) [Example 153, (2-Chloro-3-(trifluoromethyl)phenyl)(1-(5-fluoropyrimidin-2-yl)-4-methyl-6,7-dihydro-1H-[1,2,3]triazolo[4,5-c]pyridin-5(4H)-yl)methanone]

The next lines start with the compound.

SMILES | PBMC 10 μM (% control)
C[C@H]1Cc2c(nnn2-c2ncc(F)cn2)CN1C(=O)c1cccc(Cl)c1Cl (single isomer, unassigned) [Example 205, (6S*)-5-[(2,3-Dichlorophenyl)carbonyl]-1-(5-fluoropyrimidin-2-yl)-6-methyl-4,5,6,7-tetrahydro-1H-[1,2,3]triazolo[4,5-c]pyridine] | 17.1 % control
CC1c2ncn(-c3ccc(F)cn3)c2CCN1C(=O)c1ccc(C(C)(C)C)cc1 (stereo not drawn) [Example 265, (4-(tert-butyl)phenyl)(1-(5-fluoropyridin-2-yl)-4-methyl-6,7-dihydro-1H-imidazo[4,5-c]pyridin-5(4H)-yl)methanone] | 76.5 % control
C[C@@H]1Cc2c(nnn2-c2ncc(F)cn2)CN1C(=O)c1ccc(F)c(Cl)c1Cl (single isomer, unassigned) [Example 214, (6R*)-5-[(2,3-Dichloro-4-fluorophenyl)carbonyl]-1-(5-fluoropyrimidin-2-yl)-6-methyl-4,5,6,7-tetrahydro-1H-[1,2,3]triazolo[4,5-c]pyridine] | 8.2 % control
Cc1c(C(=O)N2Cc3nnn(-c4ncc(F)cn4)c3C[C@@H]2C)cccc1C(F)(F)F (single isomer, unassigned) [Example 208, (6S*)-1-(5-Fluoropyrimidin-2-yl)-6-methyl-5-{[2-methyl-3-(trifluoromethyl)phenyl]carbonyl}-4,5,6,7-tetrahydro-1H-[1,2,3]triazolo[4,5-c]pyridine] | 20.9 % control
C[C@@H]1Cc2c(nnn2-c2ncc(F)cn2)CN1C(=O)c1cccc(Cl)c1Cl (single isomer, unassigned) [Example 204, (6R*)-5-[(2,3-Dichlorophenyl)carbonyl]-1-(5-fluoropyrimidin-2-yl)-6-methyl-4,5,6,7-tetrahydro-1H-[1,2,3]triazolo[4,5-c]pyridine] | 180.6 % control
CC1c2ncn(-c3ccccn3)c2CCN1C(=O)c1cccc(C(F)(F)F)c1F (stereo not drawn) [Example 19, (2-Fluoro-3-(trifluoromethyl)phenyl)(4-methyl-1-(pyridin-2-yl)-6,7-dihydro-1H-imidazo[4,5-c]pyridin-5(4H)-yl)methanone] | 11.6 % control
C[C@@H]1Cc2c(nnn2-c2ncccc2F)CN1C(=O)c1cccc(Cl)c1Cl (single isomer, unassigned) [Example 165, (6R*)-5-[(2,3-Dichlorophenyl)carbonyl]-1-(3-fluoropyridin-2-yl)-6-methyl-4,5,6,7-tetrahydro-1H-[1,2,3]triazolo[4,5-c]pyridine] | 60.7 % control
Cc1c(C(=O)N2Cc3nnn(-c4ncc(F)cn4)c3C[C@H]2C)cccc1C(F)(F)F (single isomer, unassigned) [Example 207, (6R*)-1-(5-Fluoropyrimidin-2-yl)-6-methyl-5-{[2-methyl-3-(trifluoromethyl)phenyl]carbonyl}-4,5,6,7-tetrahydro-1H-[1,2,3]triazolo[4,5-c]pyridine] | 45.0 % control
CC1Cc2c(nnn2-c2ncccc2F)CN1C(=O)c1cccc(Cl)c1Cl (stereo not drawn) [Example 161, (2,3-Dichlorophenyl)(1-(3-fluoropyridin-2-yl)-6-methyl-6,7-dihydro-1H-[1,2,3]triazolo[4,5-c]pyridin-5(4H)-yl)methanone] | −0.9 % control

From patent US9464084B2, “P2X7 modulators” (Janssen Pharmaceutica NV, priority 2013, dated 2016)
